The source of these data is PubChem BioAssay (NCI).

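Cultured in 96-well plates, cells were exposed to test compound for 48 hours across five concentrations. GI50: concentration for 50% inhibition of growth. At the TGI there is no net growth.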

Test in all cases: growth of human tumour cells (NCI), 48 h
Assay [1] concerns EKVX NSCLC.
The subject of assay [2] is NCI-H226 lung.
The test system of assay [3] is SNB-78 CNS.
In assay [4] the test system is DMS 273 small cell lung.
Assay [5] concerns HOP-62 NSCLC.
The subject of assay [6] is SNB-19 CNS.
Assay [7] concerns NCI-H23 lung.
Assay [8] relates to M14 melanoma.
Assay [9] deals with KM20L2 colon.
Assay [10] deals with XF 498 CNS.
Assay [11] deals with T-47D breast.
Assay [12] has as its system HS 578T breast.

On to `N#Cc1ccc(Sc2nc3ccccc3[nH]2)cc1`, for which the TGI in assay [1], in [2], in assay [3], in assay [4], in [5] and in assay [6] was above 100 µM each time. In assay [7], this compound came in with a TGI above 100 µM.

Consider `COc1cc(/C=C2\NC(=O)C(Cc3cc(OC)c(OC)c(C)c3OC)N(C(C)=O)C2=O)c(OC)c(C)c1OC` (stereo not drawn), for which the TGI in assay [1], in [2], in [8], in assay [4], in assay [5] and in assay [6] was above 100 µM each time. Besides, the TGI in [9] and in [7] was above 100 µM throughout.

For the compound `COC(=O)C(C(=O)C(=O)Nc1c(Cl)cc([N+](=O)[O-])cc1Cl)c1csc(-n2nc(C3=CCCCC3)cc2-c2ccccc2)n1` (stereo not drawn), the TGI in [1] is 94.7 µM; in assay [2], above 100 µM; in assay [8], above 100 µM; in assay [3] it was above 100 µM; in [4] it was above 100 µM; in assay [5], above 100 µM. For the same compound, the TGI in [6] and in [9] was above 100 µM throughout.

Regarding `OC(c1ccccc1Br)(c1ccccc1Br)C(F)(F)F`, the TGI in [1] is above 100 µM; in assay [2], 26.5 µM; in assay [8], above 100 µM; in [4], 40.7 µM; in assay [5], 52.8 µM; in assay [10] it was 38.2 µM. The figures for the TGI in [9] and in [7] were 52.3 µM and 78.3 µM, respectively.

`CCOC(=O)C1(C)CCC(C(C(=O)O)C(=O)O)CC1=O` (stereo not drawn): the TGI in assay [1], in assay [2], in assay [8], in assay [3], in assay [4] and in assay [5] was above 100 µM each time. Besides, the TGI in assay [6] and in [9] was above 100 µM in each case.

Consider `COc1ccc2ccccc2c1C1=NC(C)(C)CO1`, for which the TGI in assay [1], in assay [2], in [8], in assay [5], in assay [6] and in assay [10] was above 100 µM throughout. Further, the TGI in assay [9] and in assay [7] was above 100 µM throughout.

Take `O=C(CCCC(=O)Nc1ccc(Cl)cc1Cl)CC(=O)c1ccc2ccccc2c1`: the TGI in [1], in [2], in assay [8], in [3], in [4] and in assay [5] was above 100 µM in each case. The TGI in assay [6], in assay [9] and in assay [7] was above 100 µM in each case.

Turning to `Nc1nc(=S)c2c(ncn2CCO)[nH]1`, the TGI in assay [1], in assay [2], in [8], in assay [3], in assay [4] and in [5] was above 100 µM in each case. The TGI in assay [6] and in assay [9] was above 100 µM in each case.

On to `O=C1CC(c2ccc(Cl)cc2)=Nc2ccccc2N1`, for which the TGI in [1], in assay [2], in [8], in assay [3], in assay [4] and in [5] was above 100 µM in each case. For the same compound, the TGI in [6], in assay [9] and in assay [7] was above 100 µM throughout.

`COC(=O)C1=C(C(=O)OC)C2(c3ccccc3)OC1(c1ccccc1)c1cc3ccccc3cc12`: the TGI is 3.33 µM in assay [1]; 3.33 µM in assay [8]; 3.7 µM in assay [4]; 27.1 µM in [5]; 15.5 µM in [6]; 3.76 µM in assay [9]. For the same compound, in assay [7], the TGI was 4.48 µM.

For `CCCCCCCCOCC(COC(=O)CCCCCCC)OC(=O)CCCCCCC` (stereo not drawn), the TGI in [2], in assay [8], in assay [4], in assay [5], in assay [6] and in assay [9] was above 100 µM each time. This compound also came in with a TGI in assay [7] above 100 µM.

For the compound `CCOC(=O)c1ccc(N=Nc2ccc(N(CCC#N)CCC#N)cc2C)cc1`, the TGI in assay [1], in assay [2], in assay [8], in [3], in assay [4] and in assay [5] was above 100 µM in each case. In addition, the TGI in assay [6] and in assay [7] was above 100 µM in each case.

Turning to `CC(=O)Oc1c(C(=O)[O-])cc(C(C)C)cc1C(C)C.CC(=O)Oc1c(C(=O)[O-])cc(C(C)C)cc1C(C)C.CC(=O)Oc1c(C(=O)[O-])cc(C(C)C)cc1C(C)C.CC(=O)Oc1c(C(=O)[O-])cc(C(C)C)cc1C(C)C.[Cu+2].[Cu+2]`, the GI50 in assay [1] was 37.5 µM; in [2] it was 69.3 µM; in [11] it was 52 µM; in assay [8], 49.3 µM; in assay [12] it was 50.5 µM; in assay [5], 25 µM. The GI50 in assay [6] is 26.3 µM; in assay [7], 20.1 µM. Further, the TGI was 73.2 µM in assay [1]; above 100 µM in [2]; above 100 µM in assay [11]; above 100 µM in assay [8]; above 100 µM in [12]; 54.4 µM in [5]. Moreover, the TGI in assay [6] came out at 61.7 µM; in assay [7] it was 52.7 µM.

As for `Fc1ccc(NC(c2ccc(F)cc2)C2CCN(CCCCc3ccccc3)CC2)cc1` (stereo not drawn), the GI50 in [1] was 1.7 µM; in assay [2], 1.78 µM; in assay [11], 1.65 µM; in assay [8], 1.59 µM; in [12], 1.7 µM; in assay [5], 1.45 µM. Besides, the GI50 in [6] is 1.99 µM; in [7] it was 1.78 µM. The TGI in assay [1] came out at 4.42 µM; in assay [2] it was 3.6 µM; in assay [11] it was 3.62 µM; in assay [8] it was 3.2 µM; in [12], 3.9 µM; in assay [5] it was 3 µM. For the same compound, the TGI in assay [6] came to 4.9 µM; in assay [7] it was 3.86 µM.

`NC(N)=NCCCC(NCc1c2ccccc2nc2ccccc12)C(=O)O` (stereo not drawn): the TGI in assay [1], in assay [2], in assay [11], in assay [8], in assay [12] and in [4] was above 100 µM each time. The TGI was above 100 µM in [5], above 100 µM in [6], 86.7 µM in [9] and above 100 µM in assay [7].

With `CCCCCCCCCCCC[C@@H](O)[C@H]1CC[C@H]([C@H](O)CC[C@H](O)[C@@H]2CC[C@@H](CCCCCCCC3=C[C@H](C)OC3=O)O2)O1`, the GI50 is 1.69 µM in assay [1]; 4.45 µM in [11]; 4.99 µM in [8]; above 50 µM in assay [12]; 9.69 µM in [6]; 0.164 µM in assay [7]. The TGI in [1], in assay [2], in assay [11], in assay [8], in assay [12] and in assay [5] was above 50 µM in each case. Further, the TGI in assay [6] and in [7] was above 50 µM each time.

Regarding `CCOC(=O)/C(=C\c1cccc(C)c1)C(C)=O`, the TGI is above 100 µM in assay [1]; above 100 µM in assay [2]; 46.7 µM in [11]; 44.3 µM in [8]; 51.3 µM in [12]; 96.1 µM in assay [5]. Also, the TGI in assay [6] was 36.7 µM; in assay [7] it was 39 µM.

For the compound `N#CC(C#N)=C/C=C(\Sc1ccc(Cl)cc1)c1ccc(F)cc1`, the GI50 is 15.7 µM in [1]; 2.72 µM in [2]; 13.3 µM in [11]; 0.729 µM in assay [8]; 2.75 µM in assay [12]; 2.54 µM in [5]. The GI50 in [6] was 5.67 µM; in assay [7], 0.528 µM. Moreover, the TGI in assay [1] was 52.5 µM; in assay [2] it was 17.8 µM; in assay [11] it was above 71.6 µM; in assay [8], 2.61 µM; in assay [12], 22.8 µM; in assay [5], 16 µM. Besides, the TGI in assay [6] came to 24.9 µM; in assay [7], 2.05 µM.

With `Cc1cc(Br)c(NC(=O)c2c(-c3c(Cl)cccc3Cl)noc2C)c(Br)c1`, the GI50 in assay [1] is above 100 µM; in [2] it was 82.5 µM; in assay [11], above 100 µM; in assay [8], above 100 µM; in [12], 26.5 µM; in assay [5], 30.8 µM. For the same compound, the GI50 in assay [6] and in assay [7] was above 100 µM each time. In addition, the TGI in assay [1], in [2], in assay [11], in [8], in assay [12] and in assay [5] was above 100 µM in each case. In addition, the TGI in [6] and in assay [7] was above 100 µM each time.

For the compound `CCN(CC)c1ccc2nc3ccc(=[N+](CC)CC)cc-3oc2c1`, the GI50 in assay [1] was 0.292 µM; in [2], 0.729 µM; in [11] it was 0.105 µM; in assay [8], 0.0903 µM; in assay [12], 1.37 µM; in [5], 0.93 µM. Also, the GI50 is 0.786 µM in assay [6] and 0.097 µM in assay [7]. Also, the TGI in assay [1] was above 40.7 µM; in [2], 3.8 µM; in [11], 1.18 µM; in assay [8], 1.71 µM; in assay [12], 5.94 µM; in assay [5], 32.2 µM. Also, the TGI is above 35.3 µM in [6] and 1.27 µM in [7].

With `COCCN(CCOC)c1nc(-c2ccccc2)nc2ccccc12`, the GI50 in assay [1] is 38.8 µM; in assay [2], 23.6 µM; in [11] it was 26.9 µM; in assay [8], 13.9 µM; in assay [12], 38.8 µM; in assay [5] it was 22.4 µM. Also, the GI50 in [6] is 40.9 µM; in assay [7], 26.6 µM. For the same compound, the TGI is above 100 µM in [1]; 54 µM in [2]; above 100 µM in assay [11]; 56.6 µM in assay [8]; above 100 µM in [12]; 64.3 µM in assay [5]. Besides, the TGI is above 100 µM in assay [6] and 54.7 µM in [7].

Take `CCCCS(=O)c1sc2nc(-c3cccs3)cc(-c3ccccc3)c2c1N` (stereo not drawn): the GI50 in [1] was 9.48 µM; in assay [2], 17.8 µM; in assay [11] it was 5.77 µM; in assay [8], 17.9 µM; in assay [12] it was 18.9 µM; in [5], 31.1 µM. In addition, the results for the GI50 in assay [6] and in [7] were 18.7 µM and 19 µM, respectively. Besides, the TGI is above 100 µM in assay [1]; above 100 µM in [2]; 46.7 µM in [11]; above 100 µM in [8]; above 100 µM in assay [12]; above 100 µM in assay [5]. Further, the TGI in [6] and in [7] was above 100 µM each time.

With `OCCCCC#Cc1ccccc1C#Cc1cccc(C(F)(F)F)c1`, the GI50 in [1] was 17.9 µM; in assay [2], 18.3 µM; in [11], 22 µM; in assay [8] it was 21.5 µM; in assay [12], 29.7 µM; in assay [5], 16.9 µM. Besides, the values for the GI50 in assay [6] and in [7] were 20.2 µM and 16.4 µM, respectively. Besides, the TGI in assay [1] amounted to 34.7 µM; in assay [2] it was 34 µM; in assay [11] it was 44.5 µM; in assay [8], 50.5 µM; in [12] it was 71.3 µM; in assay [5], 33.3 µM. Also, the results for the TGI in assay [6] and in assay [7] were 36.4 µM and 31.5 µM, respectively.

In the case of `CCO/C=C1\SC(=S)N(c2ccc(OCC)cc2)C1=O`, the TGI in assay [1], in [2], in assay [11], in [8], in [12] and in assay [5] was above 100 µM each time. For the same compound, the TGI in assay [6] and in [7] was above 100 µM throughout.
